Test results from ChEMBL document CHEMBL3758155, “Development of certain new 2-substituted-quinazolin-4-yl-aminobenzenesulfonamide as potential antitumor agents” (Eur J Med Chem, 2016).
Active and inactive are the calls of the source. No cut-off for these calls is given here.

Assays:
[1] = test system: SW-620; experiment: Antiproliferative activity against human SW620 cells assessed as inhibition of cell viability at 5 to 10 uM after 24 hrs by trypan blue assay; type: functional, cell-based
[2] = test system: HT-29; experiment: Inhibition of carbonic anhydrase 2 expression in human HT-29 cells at 2.5 to 10 uM after 18 hrs by Western blot analysis; type: functional, cell-based
[3] = test system: HT-29; experiment: Antiproliferative activity against human HT-29 cells assessed as inhibition of cell viability at 10 uM by trypan blue assay; type: functional, cell-based; conditions: TDE = time-dependent effect
[4] = test system: HT-29; experiment: Antiproliferative activity against human HT-29 cells assessed as inhibition of cell viability after 24 hrs by trypan blue assay; type: functional, cell-based
[5] = test system: HT-29; experiment: Inhibition of carbonic anhydrase 9 expression in human HT-29 cells after 18 hrs by Western blot analysis; type: functional, cell-based
[6] = test system: HT-29; experiment: Inhibition of carbonic anhydrase 1 expression in human HT-29 cells at 2.5 to 10 uM after 18 hrs by Western blot analysis; type: functional, cell-based
[7] = test system: HT-29; experiment: Inhibition of carbonic anhydrase 12 expression in human HT-29 cells after 18 hrs by Western blot analysis; type: functional, cell-based
[8] = test system: HT-29; experiment: Antiproliferative activity against human HT-29 cells assessed as cell viability at 10 uM after 24 hrs by trypan blue assay; type: functional; conditions: HT-29, 24 h, read-out: Activity

IC50 ([4]; HT-29, 24 h): 5.45 µM
SMILES: NS(=O)(=O)c1ccc(Nc2nc(-c3ccc(Cl)cc3)nc3ccccc23)cc1
inhibition [1]: Active
inhibition [2]: inactive
inhibition [3]: tde
inhibition [4]: Dose-dependent effect
inhibition [5]: Dose-dependent effect
inhibition [6]: inactive
inhibition [7]: Dose-dependent effect
viability at 10 µM [8]: 12%
